In ChEMBL document CHEMBL4507320, “Data for DCP probe NVS-MALT1” (2021):
Activity calls are given as the source filed them. The rule behind the calls is not given here.

Tests used:
[1] = biological target: Mitogen-activated protein kinase kinase kinase 15 (Homo sapiens) (UniProt Q6ZN16); settings: Compound concentration 1000.0 nM
[2] = test system: Hepatocyte growth factor receptor (Homo sapiens), P08581 [M1250T]; settings: Compound concentration 1000.0 nM
[3] = biological target: Serine/threonine-protein kinase ICK (Homo sapiens) (UniProt Q9UPZ9); settings: Compound concentration 1000.0 nM
Serine/threonine-protein kinase ICK (Homo sapiens), sequence (Q9UPZ9 whole entry): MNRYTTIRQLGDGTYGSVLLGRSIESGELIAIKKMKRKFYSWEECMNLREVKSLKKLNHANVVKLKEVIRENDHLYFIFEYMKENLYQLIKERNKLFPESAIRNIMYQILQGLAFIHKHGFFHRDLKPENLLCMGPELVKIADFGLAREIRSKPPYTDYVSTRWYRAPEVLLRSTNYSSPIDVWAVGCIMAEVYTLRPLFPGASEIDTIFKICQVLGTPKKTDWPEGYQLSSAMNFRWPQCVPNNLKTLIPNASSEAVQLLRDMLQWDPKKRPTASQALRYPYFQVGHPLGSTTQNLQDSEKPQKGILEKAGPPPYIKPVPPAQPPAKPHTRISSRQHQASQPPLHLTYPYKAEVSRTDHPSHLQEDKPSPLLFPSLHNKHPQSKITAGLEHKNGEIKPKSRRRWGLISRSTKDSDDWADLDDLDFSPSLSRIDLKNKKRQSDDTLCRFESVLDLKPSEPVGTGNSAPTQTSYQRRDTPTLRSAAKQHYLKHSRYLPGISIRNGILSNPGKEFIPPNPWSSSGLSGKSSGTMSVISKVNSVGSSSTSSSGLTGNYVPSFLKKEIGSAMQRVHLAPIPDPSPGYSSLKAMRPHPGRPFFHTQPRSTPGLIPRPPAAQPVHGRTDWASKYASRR

[4] = test system: Tyrosine-protein kinase ABL1 (Homo sapiens), P00519 [F317L]; settings: Compound concentration 1000.0 nM
[5] = biological target: Mast/stem cell growth factor receptor Kit (Homo sapiens) (UniProt P10721); settings: Compound concentration 1000.0 nM
[6] = test system: eIF-2-alpha kinase GCN2 (Homo sapiens), Q9P2K8 [S808G]; settings: Compound concentration 1000.0 nM
[7] = biological target: STE20/SPS1-related proline-alanine-rich protein kinase (Homo sapiens) (UniProt Q9UEW8); settings: Compound concentration 1000.0 nM
[8] = biological target: Serine/threonine-protein kinase ULK3 (Homo sapiens) (UniProt Q6PHR2); settings: Compound concentration 1000.0 nM
Serine/threonine-protein kinase ULK3 (Homo sapiens), sequence (Q6PHR2 whole entry): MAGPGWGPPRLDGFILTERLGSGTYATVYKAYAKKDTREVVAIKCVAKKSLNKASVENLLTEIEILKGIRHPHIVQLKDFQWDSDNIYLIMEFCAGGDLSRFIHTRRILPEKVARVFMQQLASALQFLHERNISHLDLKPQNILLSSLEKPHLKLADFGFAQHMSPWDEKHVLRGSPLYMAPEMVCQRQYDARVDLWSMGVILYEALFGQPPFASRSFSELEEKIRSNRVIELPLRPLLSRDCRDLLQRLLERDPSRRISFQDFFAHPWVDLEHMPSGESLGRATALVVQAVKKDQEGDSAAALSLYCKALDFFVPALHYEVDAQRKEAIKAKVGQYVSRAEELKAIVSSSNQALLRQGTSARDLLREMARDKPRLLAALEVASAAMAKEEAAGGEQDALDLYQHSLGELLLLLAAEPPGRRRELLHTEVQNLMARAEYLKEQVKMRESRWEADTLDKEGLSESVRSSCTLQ

[9] = biological target: T1, Mucosa-associated lymphoid tissue lymphoma translocation protein 1 (Homo sapiens, UniProt Q9UDY8); experiment: Human biochemical (TR-FRET) assay (high salt)
T1 sequence (Q9UDY8 whole entry): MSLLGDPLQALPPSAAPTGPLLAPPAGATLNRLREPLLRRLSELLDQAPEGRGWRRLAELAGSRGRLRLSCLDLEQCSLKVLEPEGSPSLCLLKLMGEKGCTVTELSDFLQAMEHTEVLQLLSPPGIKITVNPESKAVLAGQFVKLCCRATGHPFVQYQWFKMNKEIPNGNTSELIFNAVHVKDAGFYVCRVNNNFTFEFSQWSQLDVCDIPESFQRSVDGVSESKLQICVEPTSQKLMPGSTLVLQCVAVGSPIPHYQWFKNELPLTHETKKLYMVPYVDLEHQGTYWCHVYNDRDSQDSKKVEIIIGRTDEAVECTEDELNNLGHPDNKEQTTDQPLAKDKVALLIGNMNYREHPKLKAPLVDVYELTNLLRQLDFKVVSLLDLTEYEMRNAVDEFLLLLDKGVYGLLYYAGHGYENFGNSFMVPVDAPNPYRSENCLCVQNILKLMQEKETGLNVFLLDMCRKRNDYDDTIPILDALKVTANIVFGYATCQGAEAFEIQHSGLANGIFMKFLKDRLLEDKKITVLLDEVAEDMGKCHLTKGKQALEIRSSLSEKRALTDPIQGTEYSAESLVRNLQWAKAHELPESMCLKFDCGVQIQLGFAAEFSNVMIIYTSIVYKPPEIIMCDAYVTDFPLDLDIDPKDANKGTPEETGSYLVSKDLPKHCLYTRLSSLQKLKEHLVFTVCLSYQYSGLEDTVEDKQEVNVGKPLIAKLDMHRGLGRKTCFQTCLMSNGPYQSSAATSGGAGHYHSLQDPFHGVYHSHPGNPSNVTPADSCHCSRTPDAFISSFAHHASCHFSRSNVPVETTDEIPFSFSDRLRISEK

[10] = test system: Receptor-type tyrosine-protein kinase FLT3 (Homo sapiens), P36888 [UNDEFINED MUTATION]; settings: Compound concentration 1000.0 nM
Receptor-type tyrosine-protein kinase FLT3 (Homo sapiens), P36888 [UNDEFINED MUTATION], sequence (P36888 whole entry, looked up, change not shown): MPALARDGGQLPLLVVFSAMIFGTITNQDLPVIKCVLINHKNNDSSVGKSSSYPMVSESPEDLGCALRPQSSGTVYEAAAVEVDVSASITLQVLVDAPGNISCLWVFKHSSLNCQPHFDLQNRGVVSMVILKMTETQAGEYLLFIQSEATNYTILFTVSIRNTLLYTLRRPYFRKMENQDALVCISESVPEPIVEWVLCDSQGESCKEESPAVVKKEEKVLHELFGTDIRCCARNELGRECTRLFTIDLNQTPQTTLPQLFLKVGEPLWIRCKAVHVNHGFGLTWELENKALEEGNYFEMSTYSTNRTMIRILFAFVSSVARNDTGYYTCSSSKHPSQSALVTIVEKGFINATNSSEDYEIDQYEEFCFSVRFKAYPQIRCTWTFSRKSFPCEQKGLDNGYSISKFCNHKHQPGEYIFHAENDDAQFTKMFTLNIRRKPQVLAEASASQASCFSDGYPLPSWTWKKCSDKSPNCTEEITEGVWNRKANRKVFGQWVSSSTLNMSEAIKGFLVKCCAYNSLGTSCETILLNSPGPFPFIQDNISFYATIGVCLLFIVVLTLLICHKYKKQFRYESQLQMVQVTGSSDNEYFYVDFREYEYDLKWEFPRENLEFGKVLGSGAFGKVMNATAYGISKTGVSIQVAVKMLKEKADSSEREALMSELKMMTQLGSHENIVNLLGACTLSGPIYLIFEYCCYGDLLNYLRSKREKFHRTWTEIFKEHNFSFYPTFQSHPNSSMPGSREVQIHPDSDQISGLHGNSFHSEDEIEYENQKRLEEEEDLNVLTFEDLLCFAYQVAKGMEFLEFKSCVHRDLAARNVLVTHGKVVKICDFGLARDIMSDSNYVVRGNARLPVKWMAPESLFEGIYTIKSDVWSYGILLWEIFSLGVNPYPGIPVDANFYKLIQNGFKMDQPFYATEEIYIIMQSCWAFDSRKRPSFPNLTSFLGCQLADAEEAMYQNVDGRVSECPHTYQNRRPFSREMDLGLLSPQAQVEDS

[11] = biological target: Cyclin-dependent kinase 19 (Homo sapiens) (UniProt Q9BWU1); settings: Compound concentration 1000.0 nM
[12] = test system: Tyrosine-protein kinase ABL1 (Homo sapiens), P00519 [H396P]; settings: Compound concentration 1000.0 nM
[13] = biological target: Rhodopsin kinase GRK1 (Homo sapiens) (UniProt Q15835); settings: Compound concentration 1000.0 nM
[14] = biological target: Receptor-interacting serine/threonine-protein kinase 4 (Homo sapiens) (UniProt P57078); settings: Compound concentration 1000.0 nM
[15] = biological target: Serine/threonine-protein kinase OSR1 (Homo sapiens) (UniProt O95747); settings: Compound concentration 1000.0 nM
[16] = biological target: Mitogen-activated protein kinase kinase kinase 1 (Homo sapiens) (UniProt Q13233); settings: Compound concentration 1000.0 nM
[17] = biological target: Casein kinase I isoform epsilon (Homo sapiens) (UniProt P49674); settings: Compound concentration 1000.0 nM
[18] = biological target: Serine/threonine-protein kinase 33 (Homo sapiens) (UniProt Q9BYT3); settings: Compound concentration 1000.0 nM
[19] = biological target: Receptor-type tyrosine-protein kinase FLT3 (Homo sapiens, UniProt P36888); settings: Compound concentration 1000.0 nM
Receptor-type tyrosine-protein kinase FLT3, sequence (P36888 whole entry): as the sequence (P36888 whole entry, looked up, change not shown) above

[20] = biological target: Cyclin-dependent kinase 17 (Homo sapiens) (UniProt Q00537); settings: Compound concentration 1000.0 nM
[21] = biological target: Serine/threonine-protein kinase PknB (Mycobacterium tuberculosis) (UniProt P9WI81); settings: Compound concentration 1000.0 nM
Serine/threonine-protein kinase PknB (Mycobacterium tuberculosis), sequence (P9WI81 whole entry): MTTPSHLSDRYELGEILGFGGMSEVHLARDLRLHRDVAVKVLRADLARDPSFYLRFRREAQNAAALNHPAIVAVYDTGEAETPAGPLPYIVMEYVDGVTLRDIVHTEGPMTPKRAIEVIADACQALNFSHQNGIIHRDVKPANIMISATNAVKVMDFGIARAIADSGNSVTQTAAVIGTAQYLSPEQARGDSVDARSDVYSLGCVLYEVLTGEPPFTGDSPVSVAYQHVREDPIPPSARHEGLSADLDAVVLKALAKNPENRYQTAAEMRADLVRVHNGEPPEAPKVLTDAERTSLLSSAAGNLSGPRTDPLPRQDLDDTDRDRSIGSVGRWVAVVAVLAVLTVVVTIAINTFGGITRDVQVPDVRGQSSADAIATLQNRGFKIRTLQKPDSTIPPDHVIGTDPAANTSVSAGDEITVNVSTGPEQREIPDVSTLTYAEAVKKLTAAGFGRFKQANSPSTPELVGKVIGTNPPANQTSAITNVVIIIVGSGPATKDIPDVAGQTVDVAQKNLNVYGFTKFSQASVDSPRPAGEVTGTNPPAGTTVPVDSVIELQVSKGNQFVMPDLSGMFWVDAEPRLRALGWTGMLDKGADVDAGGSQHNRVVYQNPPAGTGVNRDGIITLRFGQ

[22] = biological target: Ribosomal protein S6 kinase alpha-6 (Homo sapiens) (UniProt Q9UK32); settings: Compound concentration 1000.0 nM
[23] = biological target: Ribosomal protein S6 kinase alpha-3 (Homo sapiens) (UniProt P51812); settings: Compound concentration 1000.0 nM
Ribosomal protein S6 kinase alpha-3 (Homo sapiens), sequence (P51812 whole entry): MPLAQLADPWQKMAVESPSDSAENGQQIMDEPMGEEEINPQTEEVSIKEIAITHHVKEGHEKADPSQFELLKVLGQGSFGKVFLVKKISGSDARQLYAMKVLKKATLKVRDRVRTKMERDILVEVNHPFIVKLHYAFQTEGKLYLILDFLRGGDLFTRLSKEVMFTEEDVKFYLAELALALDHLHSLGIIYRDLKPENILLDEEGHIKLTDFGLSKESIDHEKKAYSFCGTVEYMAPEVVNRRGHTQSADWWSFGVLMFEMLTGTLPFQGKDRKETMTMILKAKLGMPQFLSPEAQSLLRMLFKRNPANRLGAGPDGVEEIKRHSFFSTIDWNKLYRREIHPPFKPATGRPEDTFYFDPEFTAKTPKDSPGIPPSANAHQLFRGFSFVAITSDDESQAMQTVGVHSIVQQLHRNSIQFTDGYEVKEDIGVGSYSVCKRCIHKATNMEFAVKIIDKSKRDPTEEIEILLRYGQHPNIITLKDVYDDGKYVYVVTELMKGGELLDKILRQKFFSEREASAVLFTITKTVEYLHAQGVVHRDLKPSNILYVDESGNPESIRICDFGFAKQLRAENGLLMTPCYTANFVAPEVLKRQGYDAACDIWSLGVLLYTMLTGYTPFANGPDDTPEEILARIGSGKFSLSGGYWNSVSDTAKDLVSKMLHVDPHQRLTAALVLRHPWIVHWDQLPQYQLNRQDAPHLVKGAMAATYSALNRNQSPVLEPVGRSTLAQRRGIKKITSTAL

[24] = biological target: Serine/threonine-protein kinase 4 (Homo sapiens) (UniProt Q13043); settings: Compound concentration 1000.0 nM
[25] = biological target: Calcium/calmodulin-dependent protein kinase type 1G (Homo sapiens) (UniProt Q96NX5); settings: Compound concentration 1000.0 nM
Calcium/calmodulin-dependent protein kinase type 1G (Homo sapiens), sequence (Q96NX5 whole entry): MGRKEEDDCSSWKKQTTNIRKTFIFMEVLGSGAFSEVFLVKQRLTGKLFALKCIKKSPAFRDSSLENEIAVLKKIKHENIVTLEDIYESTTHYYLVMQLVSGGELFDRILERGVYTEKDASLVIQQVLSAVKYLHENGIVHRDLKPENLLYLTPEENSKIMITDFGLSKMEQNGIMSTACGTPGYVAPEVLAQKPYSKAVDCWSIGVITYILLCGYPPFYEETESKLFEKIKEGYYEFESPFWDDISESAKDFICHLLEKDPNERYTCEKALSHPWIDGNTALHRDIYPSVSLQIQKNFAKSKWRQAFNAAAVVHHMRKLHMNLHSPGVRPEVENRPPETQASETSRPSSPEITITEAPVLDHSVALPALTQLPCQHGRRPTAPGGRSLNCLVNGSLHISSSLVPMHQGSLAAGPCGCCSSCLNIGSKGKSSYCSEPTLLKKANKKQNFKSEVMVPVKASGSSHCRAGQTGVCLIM

[26] = biological target: Leucine-rich repeat serine/threonine-protein kinase 2 (Homo sapiens) (UniProt Q5S007); settings: Compound concentration 1000.0 nM
[27] = biological target: Hormonally up-regulated neu tumor-associated kinase (Homo sapiens) (UniProt P57058); settings: Compound concentration 1000.0 nM
[28] = biological target: Cyclin-dependent kinase 15 (Homo sapiens) (UniProt Q96Q40); settings: Compound concentration 1000.0 nM
[29] = biological target: Casein kinase I isoform gamma-1 (Homo sapiens) (UniProt Q9HCP0); settings: Compound concentration 1000.0 nM
[30] = biological target: Receptor-interacting serine/threonine-protein kinase 2 (Homo sapiens) (UniProt O43353); settings: Compound concentration 1000.0 nM
[31] = biological target: Mitogen-activated protein kinase kinase kinase 10 (Homo sapiens) (UniProt Q02779); settings: Compound concentration 1000.0 nM
Mitogen-activated protein kinase kinase kinase 10 (Homo sapiens), sequence (Q02779 whole entry, looked up): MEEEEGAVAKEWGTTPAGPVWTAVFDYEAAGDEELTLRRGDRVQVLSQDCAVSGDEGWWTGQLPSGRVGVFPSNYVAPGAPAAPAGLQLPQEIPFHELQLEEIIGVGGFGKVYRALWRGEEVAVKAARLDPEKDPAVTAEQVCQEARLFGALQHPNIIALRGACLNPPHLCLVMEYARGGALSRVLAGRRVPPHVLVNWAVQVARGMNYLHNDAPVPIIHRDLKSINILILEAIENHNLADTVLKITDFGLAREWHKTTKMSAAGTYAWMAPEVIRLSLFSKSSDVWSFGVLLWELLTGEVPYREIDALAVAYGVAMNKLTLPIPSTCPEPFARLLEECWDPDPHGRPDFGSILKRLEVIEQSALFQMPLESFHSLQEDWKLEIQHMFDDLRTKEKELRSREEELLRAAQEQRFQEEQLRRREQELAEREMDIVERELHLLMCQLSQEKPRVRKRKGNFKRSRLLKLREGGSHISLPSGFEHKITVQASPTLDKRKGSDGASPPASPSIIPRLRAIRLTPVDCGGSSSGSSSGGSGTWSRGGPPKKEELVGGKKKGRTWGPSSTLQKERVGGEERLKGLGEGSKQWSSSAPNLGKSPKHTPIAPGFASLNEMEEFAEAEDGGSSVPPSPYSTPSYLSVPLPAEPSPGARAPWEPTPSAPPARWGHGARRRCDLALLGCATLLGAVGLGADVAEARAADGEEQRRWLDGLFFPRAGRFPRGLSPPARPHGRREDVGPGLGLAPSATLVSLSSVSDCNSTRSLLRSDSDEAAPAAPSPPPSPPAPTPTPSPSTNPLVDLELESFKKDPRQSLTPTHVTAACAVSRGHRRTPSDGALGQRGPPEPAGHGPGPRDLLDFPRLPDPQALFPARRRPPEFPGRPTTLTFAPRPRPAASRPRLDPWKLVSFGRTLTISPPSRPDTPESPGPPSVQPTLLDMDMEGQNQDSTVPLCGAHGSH

[32] = biological target: Ephrin type-A receptor 1 (Homo sapiens) (UniProt P21709); settings: Compound concentration 1000.0 nM
[33] = test system: Tyrosine-protein kinase ABL1 (Homo sapiens), P00519 [E255K]; settings: Compound concentration 1000.0 nM
[34] = biological target: Serine/threonine-protein kinase DCLK1 (Homo sapiens) (UniProt O15075); settings: Compound concentration 1000.0 nM

Row | Structure (SMILES) | residual activity [1] [%] | residual activity [2] [%] | residual activity [3] [%] | residual activity [4] [%] | residual activity [5] [%] | residual activity [6] [%] | residual activity [7] [%] | residual activity [8] [%] | IC50 [9] | residual activity [10] [%] | residual activity [11] [%] | residual activity [12] [%] | residual activity [13] [%] | residual activity [14] [%] | residual activity [15] [%] | residual activity [16] [%] | residual activity [17] [%] | residual activity [18] [%] | residual activity [19] [%] | residual activity [20] [%] | further results
1 | CO[C@@H](C)c1c(Nc2ccc([C@@H](N(C)C(=O)C3CCS(=O)(=O)CC3)C(F)(F)F)cc2)cnc2cc(Cl)nn12 [NVS-MALT1-C] | 100 | 100 | 96 | 100 | 100 | 68 | 50 | 97 | 190 nM (active) | 59 | 81 | 96 | 86 | 100 | 100 | 96 | 59 | 51 | 94 | 100 | residual activity [21]: 100%; residual activity [22]: 100%; residual activity [23]: 100%; residual activity [24]: 100%; residual activity [25]: 100%; residual activity [26]: 100%; residual activity [27]: 100%; residual activity [28]: 94%; residual activity [29]: 99%; residual activity [30]: 83%; residual activity [31]: 77%; residual activity [32]: 97%; residual activity [33]: 75%; residual activity [34]: 75%
2 | CO[C@@H](C)c1c(Nc2ccc([C@H](N(C)C(=O)C3CCS(=O)(=O)CC3)C(F)(F)F)cc2)cnc2cc(Cl)nn12 [NVS-MALT1] | 100 | 92 | 70 | 100 | 100 | 78 | 50 | 94 | 2.4 nM (active) | 85 | 73 | 95 | 82 | 76 | 100 | 100 | 66 | 51 | 100 | 75 | residual activity [21]: 87%; residual activity [22]: 100%; residual activity [23]: 100%; residual activity [24]: 100%; residual activity [25]: 100%; residual activity [26]: 100%; residual activity [27]: 100%; residual activity [28]: 74%; residual activity [29]: 100%; residual activity [30]: 74%; residual activity [31]: 71%; residual activity [32]: 100%; residual activity [33]: 76%; residual activity [34]: 72%
